Where two headings read alike, the source gives them in different places. Non-standard residues stand in square brackets, D forms with d. Residues, ends and D or L forms follow the SMILES beside them. *: point of attachment. Aoe = N[C@@H](CCCCCC(=O)[C@@H]1CO1)C(=O)O; Asu = N[C@@H](CCCCCC(=O)O)C(=O)O; dTic = O=C(O)[C@H]1Cc2ccccc2CN1; dPip = O=C(O)[C@H]1CCCCN1; Boc = CC(C)(C)OC(=O)*; NHOH = ON*
Assays:
[1] = target: Mouse histone deacetylase; type: biochemical
Description: In an enzyme system using a radio-labelled acetylated histone as a substrate, histone deacetylase enzyme inhibiting activity was evaluated. The basic conditions were in accordance with the method of Yoshida et al. (J. Biol. Chem., 265, 17174-17179, 1990).
Mouse histone deacetylase to be used was partially purified from FM3A cells. Cells were suspended in HDA buffer (15 mM potassium phosphate, 5% glycerol, 0.2 mM EDTA, pH 7.5), homogenized and centrifuged (35000×g, 10 min) to collect the nuclei which in turn were homogenized in the same buffer containing 1 M (NH4)2SO4. After ultrasonic disruption and centrifugation, the concentration of (NH4)2SO4 in the supernatant was increased to 3.5 M to precipitate deacetylase enzyme proteins. This precipitate was redissolved in HDA buffer, dialyzed against HDA buffer, applied to DEAE-cellulose column and eluted in NaCl gradient. Active fractions were used as a histone deacetylase enzyme solution.
As a substrate, [^3H]acetyl histone was used. In a culture solution of FM3A cells in the presence of 5 mM sodium n-butyrate, [^3H]acetate was added, followed by incubation for 30 minutes to radio-label the histone. The histone was prepared in a conventional manner and used as a substrate solution.
An assay was performed by adding a compound to be tested at a given concentration while using a no-addition control group, and by incubating the substrate solution and the enzyme solution at 37° C. for 10 minutes (reaction volume, 100 μl). The enzyme reaction was stopped by adding 10 μl of concentrated hydrochloric acid and the excised [^3H]acetate was extracted with ethyl acetate for radioactivity measurement. The inhibiting activity was expressed by a concentration at which the enzyme activity in the control group was inhibited by 50% (50% inhibiting concentration).

B16/BL6 cells = assay: MHC class-I molecule expression promoting activity; type: cell-based, mouse; conditions: for conc. for 2-fold expression (nM) mean: mean of a plurality of assays; for MHC class-I molecule expression promoting activity: allowed to act on animal cells (summary statement)
Description: The cancer cells used were mouse melanoma cells, B16/BL6 cells, provided by, the National Cancer Institute, U.S.A. Said cells were cultivated in MEM media supplemented with 10% FBS at 37° C. in the presence of 5% carbon dioxide in an humidified incubator.
A compound to be tested was preliminarily dissolved in dimethyl sulfoxide (DMSO) and adjusted to a concentration of 100 mM or 10 mM (source solution).
Said B16/BL6 cells were inoculated on 96 well microplate at a cell density of 5000 cells per well, each well containing 200 μl of said medium. […] Thereafter, each well was once washed with PBS (phosphate buffered saline) and floating cells and the medium were removed. Then, the well was treated with 0.1% glutaraldehyde solution for 3 minutes to fix the cells.
The amount of MHC class-I molecule expressed on the surface of the fixed cells was measured by the following method. Anti-H-2K^bD^bD^d antibody, which is an antibody against mouse MHC classI molecule (commercially available from Meiji Milk Co., Ltd), was used as a primary antibody, biotinylated anti-mouse IgG+M (commercially available from Chemicon) was used as a secondary antibody, and streptavidin-β-galactosidase conjugate (commercially available from BRL) was reacted as a labelling enzyme. The amount of the thus labelled enzyme β-galactosidase was measured in a microplate reader by recording the fluorescent intensity (excitation: 365 nm, fluorescence: 450 nm) derived from the enzymaticreaction product using 4-methylumbelliferyl-β-D-galactoside (commercially available from Nacalai Tesque) as a substrate. […] The value obtained by subtracting said background level from the, actually measured value (an apparent value including the background level) was the true measurement reflecting the amount of expressed MHC class-I molecule.
A group without the addition of any compound to be tested was used as a reference group and the measurement of MHC class-I molecule expressed in said group was used as a standard value. The amount of MHC class-I molecule expressed at a concentration of addition of each test compound is shown as a relative amount, said standard value taken as one (1). For each compound to be tested, various concentrations of addition were selected to investigate the dependency of MHC class-I molecule expression promoting action on the concentration of addition.

[2] = system: liver cancer MH134 cell line; assay: Cell proliferation inhibition (72 hours); type: cell-based, mouse; conditions: read-out: 50% proliferation inhibiting concentration MH134 (nM) mean
Text: (§1) In order to verify the action of the cyclic tetrapeptide derivative according to the present invention in inhibiting cell proliferation in cancerized cells, the action on the proliferation of the aforementioned B16/BL6 cells was investigated. The evaluation of cell proliferation rates was done utilizing a commercially available measuring kit, specifically, from Promega under the trade name CellTiter 96 Aqueous Non-Radioactive Proliferation Assay Kit. In the measuring kit, the amount of products through reduction of a reagent tetrazolium compound (3-(4,5-dimethylthiazol-2-yl)-5-(3-carboxymethoxyphenyl)-2-(4-sulfophenyl)-2H-tetrazolium, inner salt; MTS) by viable animal cells is determined by detecting spectrophotometrically the color generated from the products. Since the amount of products is proportional to the amount of viable cells, this kit is utilized to evaluate the amount of viable cells.
(§2) According to the procedure of Test Example 1, B16/BL6 cells are inoculated in a 96 well microplate and cultured for 24 hours. Then, 10 μl of a solution of the source solution of a compound to be tested which has been diluted to a predetermined amount per well is added. Thereafter, culture is continued for additional 48 hours and 20 μl of a reagent solution in the aforementioned CellTiter 96 Aqueous Non-Radioactive Proliferation Assay Kit is then added. After incubation is continued at 37° C. for 1 hour, the amount of color generation is measured as an absorbance at 490 n musing a microplate reader.
(§3) The amount of cell proliferation of a group to which a compound to be tested is added is expressed in a relative value as compared to the standard cell proliferation (100%) in a control group to which no compound to be tested is added. For each compound tested, the amounts of cell proliferation were measured at different concentrations of addition and the dependence of the quantitative cell proliferation on the concentration of addition was investigated. From the results, a concentration of addition at which the amount of cell proliferation was inhibited by 50% relative to the amount of cell proliferation in the control group without addition was determined.
(§4) The test method was in accordance with the above-mentioned procedure, except that the period of incubation after the addition of a compound was 72 hours.
(§5) As illustrative examples, results are shown for an evaluation using mouse malignant melanoma B16/BL6 and B16 cell lines; leukemia L1210 cell line, colon cancer Colon26 cell line, and liver cancer MH134 cell line as cancer cells. For the cell proliferation inhibiting action of each compound tested for these cancer cells, 50% proliferation inhibiting concentrations are shown in Table 4.

[3] = system: colon cancer Colon26 cell line; assay: Cell proliferation inhibition (72 hours); type: cell-based, mouse; conditions: read-out: 50% proliferation inhibiting concentration Colon 26 (nM) mean
Text: as §1, §2, §3, §4, §5

leukemia L1210 cell line = assay: Cell proliferation inhibition (72 hours); type: cell-based, mouse; conditions: read-out: 50% proliferation inhibiting concentration L1210 (nM) mean
Text: as §1, §2, §3, §4, §5

[4] = system: mouse malignant melanoma B16/BL6 cell line; type: cell-based; conditions: 72 hours; read-out: 50% proliferation inhibiting concentration B16/BL6 (nM) mean
Text: as §1
as §2, with “Then, 10 μl of a solution of the source solution of a compound to be tested which has been diluted to a predetermined amount per well is added.” left out
as §3, with “investigated.” for “investigated. From the results, a concentration of addition at which the amount of cell proliferation was inhibited by 50% relative to the amount of cell proliferation in the control group without addition was determined.”
as §4

[5] = system: mouse malignant melanoma B16 cell line; assay: Cell proliferation inhibition (72 hours); type: cell-based; conditions: read-out: 50% proliferation inhibiting concentration B16 (nM) mean
Text: as §1, §2, §3, §4, §5

histone deacetylase = assay: Histone deacetylase enzyme inhibiting activity, synthetic peptide substrate; type: biochemical, mouse; conditions: enzyme from B16/BL6 cells; [3H]acetylated histone H4 peptide; 37° C. 3 hours
Description: The preparation of histone deacetylase was performed essentially according to the method of Yoshida et al. (J. Biol. Chem., 265,17174-17179, 1990). The enzyme to be used was partially purified from B16/BL6 cells. The cells were suspended in HDA buffer (15 mM potassium phosphate, 5% glycerol, 0.2 mM EDTA, […], pH 7.5), homogenized and centrifuged (2500×g, 10 min) to collect the nuclei, which in turn were homogenized in the same buffer containing 1 M (NH4)2SO4. After ultrasonic disruption and centrifugation, the concentration of (NH4)2SO4 in the collected supernatant was increased to 3.5 M to precipitate histone deacetylase. This precipitate was redissolved in HDA buffer, subjected to gel filtration to replace the solvent with HDA buffer, and used as a crude histone deacetylase enzyme solution.
As a substrate, a synthetic substrate peptide, [^3H]acetylated histone H4 peptide was used. This [^3H]acetylated histone H4 peptide was obtained by synthesizing the N-terminal peptide of histone H4; […] (the C-terminal being cysteine) and radio-acetylating with ^3H -acetic anhydride.
An assay was performed by incubating the synthetic substrate solution and the enzyme solution at 37° C. for 3 hours in the presence of a compound to be tested (reaction volume, 100 μl). The reaction was stopped by adding 25 μl of 1 M HCl and 0.2 M acetic acid and [^3H]acetate excised by the enzyme reaction was extracted with ethyl acetate for radioactivity measurement. As a control group, the same procedure was repeated without addition of any test compound to the reaction system. The inhibiting activity was expressed by a concentration at which the histone deacetylase enzyme activity in the control group was inhibited by 50% (50% inhibiting concentration).

[6] = enzyme from FM3A cells, [3H]acetyl histone, 37° C. 10 minutes

| Compound | conc. for 2-fold expression (nM) mean (B16/BL6 cells; 72 hours) | IC50 (histone deacetylase) [nM] | further results |
| --- | --- | --- | --- |
| CC(=O)NCCCC[C@@H]1NC(=O)[C@H]2CCCN2C(=O)[C@H](Cc2ccccc2)NC(=O)[C@H](Cc2ccccc2)NC1=O [HDA-6, cyclo(-L-Lys(Ac)-L-Phe-L-Phe-D-Pro-)] (cyclo(FF[dP]K(Ac))) | 240000 nM | – | IC50 [1, 6]: 27800 nM |
| C[C@@H]1NC(=O)[C@H]2CCCN2C(=O)[C@H](CCCCCC(=O)NO)NC(=O)[C@@H](C)NC1=O [HDA-13, cyclo(-L-Asu(NHOH)-D-Pro-L-Ala-D-Ala-)] (cyclo(A[dA][Asu](NHOH)[dP])) | 406 nM | – | IC50 [2]: 7920 nM; IC50 [3]: 11000 nM; IC50 (leukemia L1210 cell line): 2770 nM; IC50 [4]: 866 nM; IC50 [5]: 15400 nM |
| CC(C)C[C@@H]1NC(=O)[C@@H](Cc2ccccc2)NC(=O)[C@H](CCCCCC(=O)NO)NC(=O)[C@@H]2CCCN2C1=O [HDA-28, cyclo(-L-Asu(NHOH)-D-Phe-L-Leu-L-Pro-)] (cyclo([Asu](NHOH)[dF]LP)) | 80.2 nM | – | IC50 [2]: 4830 nM; IC50 [3]: 7370 nM; IC50 (leukemia L1210 cell line): 1330 nM; IC50 [4]: 470 nM; IC50 [1, 6]: 6.04 nM; IC50 [5]: 3820 nM |
| CC(C)(C)OC(=O)NCCCC[C@@H]1NC(=O)[C@H](CCCCCC(=O)NO)NC(=O)[C@H]2CCCN2C(=O)[C@H](Cc2ccccc2)NC1=O [HDA-32, cyclo(-L-Asu(NHOH)-L-Lys(Boc)-L-Phe-D-Pro-)] (cyclo([Asu](NHOH)K(Boc)F[dP])) | 773 nM | – | IC50 [1, 6]: 4.95 nM |
| O=C(CCCCC[C@@H]1NC(=O)[C@@H](Cc2ccccc2)NC(=O)[C@H](Cc2ccccc2)NC(=O)[C@H]2CCCN2C1=O)NO [HDA-37, cyclo(-L-Asu(NHOH)-D-Pro-L-Phe-D-Phe-)] (cyclo([Asu](NHOH)[dP]F[dF])) | 320 nM | 9.16 | – |
| O=C(CCCCC[C@@H]1NC(=O)[C@@H]2CCCN2C(=O)[C@H](Cc2ccccc2)NC(=O)[C@@H](Cc2ccccc2)NC1=O)NO [HDA-38, cyclo(-L-Asu(NHOH)-D-Phe-L-Phe-L-Pro-)] (cyclo([Asu](NHOH)[dF]FP)) | 558 nM | 5.32 | – |
| O=C(CCCCC[C@@H]1NC(=O)[C@@H]2CCCN2C(=O)[C@@H](Cc2ccccc2)NC(=O)[C@H](Cc2ccccc2)NC1=O)NO [HDA-39, cyclo(-L-Asu(NHOH)-L-Phe-D-Phe-L-Pro-)] (cyclo([Asu](NHOH)F[dF]P)) | 65800 nM | 226 | – |
| CCC(C)[C@@H]1NC(=O)[C@@H](Cc2ccc(OC)cc2)NC(=O)[C@H](CCCCC(=O)NO)NC(=O)[C@H]2CCCN2C1=O (stereo partly drawn) [HDA-42, cyclo(-L-Api(NHOH)-D-Tyr(Me)-L-Ile-D-Pro-)] | 512 nM | 53.8 | – |
| CCC(C)[C@@H]1NC(=O)[C@@H](Cc2ccc(OC)cc2)NC(=O)[C@H](CCCCCCC(=O)NO)NC(=O)[C@H]2CCCN2C1=O (stereo partly drawn) [HDA-43, cyclo(-L-Aaz(NHOH)-D-Tyr(Me)-L-Ile-D-Pro-)] | 155 nM | 33.9 | – |
| CC[C@H](C)[C@@H]1NC(=O)[C@@H](Cc2ccc(OC)cc2)NC(=O)[C@H](CCCCCC(=O)NO)NC(=O)[C@H]2Cc3ccccc3CN2C1=O [HDA-52, cyclo(-L-Asu(NHOH)-D-Tyr(Me)-L-Ile-D-Tic-)] (cyclo([Asu](NHOH)[dY](Me)I[dTic])) | 0.191 nM | 4.35 | – |
| CCCC(=O)[O-].[Na+] [Sodium n-butyrate, reference compound] | – | – | IC50 [1]: 119000 nM |
| O=C1N[C@@H](Cc2ccccc2)C(=O)N2CCCC[C@@H]2C(=O)N[C@@H](CCCCCC(=O)[C@@H]2CO2)C(=O)N[C@H]1Cc1ccccc1 [trapoxin A, reference compound] (cyclo([Aoe]FF[dPip])) | 3.59 nM | – | IC50 [1, 6]: 0.47 nM; MHC class-I molecule expression promoting activity (B16/BL6 cells): exhibit the MHC class-I molecule expression promoting activity |
| CC(/C=C/C(=O)NO[C@@H]1O[C@H](CO)[C@@H](O)[C@H](O)[C@H]1O)=C\[C@@H](C)C(=O)c1ccc(N(C)C)cc1 [trichostatin C, reference compound] | 6.88 nM | – | MHC class-I molecule expression promoting activity (B16/BL6 cells): promotes the expression of MHC class-I molecule |
| cyclo (-L-Lys(Ac)L-Phe-L-Phe-D-Pro-)2 [HDA-7, reference compound] | 75000 nM | – | – |
| cyclo(-Asu(NHOH)-D-Phe-Phe-Sar-) [CHAP41] | 24.5 nM | – | – |
| cyclo(-Asu(NHOH)-Phe-Phe-D-Pro-)2 [HDA-19, reference compound] | weak | – | MHC class-I molecule expression promoting action (B16/BL6 cells; FIGS. 3 and 4, dependence on concentration of addition): low MHC class-I molecule expression promoting action was observed only at a high concentration of addition; Twice Promoting Concentration Cx2 (B16/BL6 cells; concentration at which MHC class-I expression is twice that without addition, 72 hours): >40 µM |
| cyclo(-L-Asu(NHOH)-D-Tyr(Me)-L-Ile-L-Pro-)2 [HDA-14, reference compound] | >10000 nM | – | – |

From patent US6399568B1, “Cyclic tetrapeptide derivatives and medicinal use thereof” (Japan Energy Corporation, priority 1997, dated 2002)
